Data: patent US20100218415A1, “HYDROXYMETHYLFURFURAL ETHERS FROM SUGARS AND HIGHER ALCOHOLS” (FURANIX TECHNOLOGIES B.V., priority 2007, published 2010)
Where two headings read alike, the source gives them in different places.

Test: Fuel solubility: blends with commercial diesel
Assay type: physicochemical
Excerpt: Fuel solubility is a primary concern for diesel fuel applications. Not all highly polar oxygenates have good solubility in the current commercial diesel fuels.

Row | Structure (SMILES) | miscibility with commercial diesel (5 vol % blend with commercial diesel) | miscibility with commercial diesel (25 vol % blend with commercial diesel) | miscibility with commercial diesel (40 vol % blend with commercial diesel) | miscibility with commercial diesel
1 | CCOCc1ccc(C=O)o1 [EMF, ethoxymethylfurfural] | completely miscible | phase separation occurs | phase separation occurs | 
2 | CCCCCCCCOCc1ccc(C=O)o1 [OMF, 5-(octyloxymethyl)furfural] |  |  |  | completely miscible
